Test [1] deals with T1, GSK-3β (Homo sapiens, UniProt P49841).
T1 construct: GST (N, cleaved yes); made in house; host or cells: Escherichia coli BL21-Codon Plus (DE3)
Kind of test: GSK-3β kinase assay (Z'-LYTE Kinase Assay kit Ser/Thr 9 Peptide). The following applies: for IC50: 50 nM enzyme, 30 μM ATP, 2 μM substrate peptide, triplicate, mean ± SE, read-out: GSK-3β inhibitory activity IC50 (nM) ± SE; for Selectivity for GSK-3β over other tested kinases: versus PKC-epsilon, JAK2, BRAF, IKK2 and Drak2. Format: biochemical. As for the experimental part: (§1) GSK3β belongs to CMGC family. Here, the other family members were used to evaluate the selectivity of GSK3β inhibitors, including PKC-epsilon (AGC family), JAK2 (TK family), Braf (TKL family), DRAK2 (CAMK family) and IKKβ (other family).The recombinant GST-GSK-3βprotein was expressed in Escherichia coli strain BL21-Codon Plus (DE3), purified by GSTrap affinity chromatography, and cleaved by thrombin. The GSK-3β kinase assay was carried out with the Z´-LYTETM Kinase Assay kit Ser/Thr 9 Peptide substrate (Invitrogen, Grand, NY, USA) in 10 μL reaction volume containing 50 nM enzyme, 30 μM ATP and 2 μM substrate peptide. Drak2 Proteins were presented by professor Jiang-ping Wu (Laboratory of Immunology, Research Centre, CHUM, Notre Dame Hospital, Pavilion DeSève). The Drak2 kinase reaction was performed in a final assay volume of 3.4 μL using the ADP-GLO Kinase Assay Kit (Promega, Madison, WI, USA), according the ADP-GLO protocol and read on an EnVision plate reader. The recombinant PKC-epsilon, IKKβ, and JAK2 with N-terminal His-tag were expressed using baculovirus expression system and purified with Ni-Beads. BRAF protein was from Carna Biosciences, Inc. (Kobe Port Island, Japan). And the related kinase reactions were performed in a final assay volume of 10 μL using the related HTRF Assay Kit (Cisbio, Codolet, France). Reactions were according the HTRF protocol and read on an EnVision plate reader. All reactions were carried out in triplicate. […] Data were expressed as mean ± SE.

Test [2] concerns Tau phosphorylation at Ser 396 in SH-SY5Y cells. The experiment in a line: Aβ25-35-induced Tau phosphorylation (Ser396) in SH-SY5Y cells, Western blotting. It counts as cell-based, human. The conditions noted are these: 100 nM, inhibitors 1 hour, then Aβ25–35 6 hours, Western blot. The procedure:
It has been implicated that GSK-3β is involved in multiple cellular processes, and its ability to hyperphosphorylate Tau protein and induce neurofibrillary tangle was intensively studied. Therefore, the cell-based assay examining Tau phosphorylation at Serine 396 represents a direct functional assay to measure the cellular activity of GSK-3β inhibitors. Compounds 7c, 7f, 7j–l and 7o–q were tested for the ability to reduce Tau phosphorylation at Ser 396 in human neuroblastoma SH-SY5Y cells. LiCl, a well-known inhibitor of GSK-3β [24], was used as a positive control in this assay. […] The Aβ-induced Tau hyperphosphorylation results in neurofibrillary tangle formation, which plays an important role in Alzheimer’s disease. […] In addition, the predictions about these compounds’ brain permeability were performed using ADME module with Discovery Studio 2.1 software package.
SH-SY5Y human neuroblastoma cells were obtained from the American Type Culture Collection (ATCC, Manassas, VA, USA). Cells were cultured in 1:1 DMEM:Ham's F12 containing 10% (v/v) fetal bovine serum (HyClone, Logan, UT, USA), 1% penicillin, and 1% streptomycin at a humidified atmosphere with 5% CO2. The medium was changed every 2 days. […] Antigen-antibody complexes were detected by the ECL Kit.
A general note: A western blot detects proteins with antibodies after separation by electrophoresis.

Test [3] addresses T2, PKC-epsilon (Homo sapiens, UniProt Q02156).
T2 construct: His-tag (N); made in house
T2 sequence (Q02156 1-737): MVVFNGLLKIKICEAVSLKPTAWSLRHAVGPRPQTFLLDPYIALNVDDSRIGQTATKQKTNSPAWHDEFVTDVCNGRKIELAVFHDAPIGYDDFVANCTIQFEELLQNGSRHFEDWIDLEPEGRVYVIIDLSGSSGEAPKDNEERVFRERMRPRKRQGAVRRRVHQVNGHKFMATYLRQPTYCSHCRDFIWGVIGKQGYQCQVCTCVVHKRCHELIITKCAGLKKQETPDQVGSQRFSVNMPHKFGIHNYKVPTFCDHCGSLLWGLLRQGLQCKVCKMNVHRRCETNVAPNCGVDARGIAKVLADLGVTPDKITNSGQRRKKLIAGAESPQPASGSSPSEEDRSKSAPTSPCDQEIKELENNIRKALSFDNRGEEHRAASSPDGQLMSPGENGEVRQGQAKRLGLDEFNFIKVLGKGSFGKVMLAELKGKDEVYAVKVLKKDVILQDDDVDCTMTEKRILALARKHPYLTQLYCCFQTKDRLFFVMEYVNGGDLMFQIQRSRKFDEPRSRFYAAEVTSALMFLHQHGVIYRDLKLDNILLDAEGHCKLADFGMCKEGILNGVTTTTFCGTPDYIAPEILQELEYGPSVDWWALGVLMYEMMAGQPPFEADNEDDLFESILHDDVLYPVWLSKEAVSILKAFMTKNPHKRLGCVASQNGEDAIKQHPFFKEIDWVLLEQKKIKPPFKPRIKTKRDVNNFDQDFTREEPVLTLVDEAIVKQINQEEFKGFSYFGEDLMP
The experiment in a line: PKC-epsilon kinase assay (HTRF). It counts as biochemical. The following applies: read-out: PKC-epsilon inhibition% at 0.8 μg/mL (~2 μM). The procedure:
as §1
On the technique in general: TR-FRET usually uses a lanthanide donor and a delayed reading to cut background.

The target of test [4] is T3, JAK2 (Homo sapiens, UniProt O60674).
T3 construct: His-tag (N); made in house
The experiment in a line: JAK2 kinase assay (HTRF). It counts as biochemical. The following applies: read-out: JAK2 inhibition% at 0.8 μg/mL (~2 μM). As for the experimental part:
as §1

For test [5], the target named is T4, BRAF (Homo sapiens, UniProt P15056).
T4 construct: purchased Carna Biosciences, Inc
The experiment in a line: BRAF kinase assay (HTRF). Format: biochemical. The conditions noted are these: read-out: BRAF inhibition% at 0.8 μg/mL (~2 μM). The procedure: as §1

Test [6] has as its target T5, IKK2 (Homo sapiens, UniProt O14920).
T5 construct: His-tag (N); made in house
T5 sequence (O14920 1-756): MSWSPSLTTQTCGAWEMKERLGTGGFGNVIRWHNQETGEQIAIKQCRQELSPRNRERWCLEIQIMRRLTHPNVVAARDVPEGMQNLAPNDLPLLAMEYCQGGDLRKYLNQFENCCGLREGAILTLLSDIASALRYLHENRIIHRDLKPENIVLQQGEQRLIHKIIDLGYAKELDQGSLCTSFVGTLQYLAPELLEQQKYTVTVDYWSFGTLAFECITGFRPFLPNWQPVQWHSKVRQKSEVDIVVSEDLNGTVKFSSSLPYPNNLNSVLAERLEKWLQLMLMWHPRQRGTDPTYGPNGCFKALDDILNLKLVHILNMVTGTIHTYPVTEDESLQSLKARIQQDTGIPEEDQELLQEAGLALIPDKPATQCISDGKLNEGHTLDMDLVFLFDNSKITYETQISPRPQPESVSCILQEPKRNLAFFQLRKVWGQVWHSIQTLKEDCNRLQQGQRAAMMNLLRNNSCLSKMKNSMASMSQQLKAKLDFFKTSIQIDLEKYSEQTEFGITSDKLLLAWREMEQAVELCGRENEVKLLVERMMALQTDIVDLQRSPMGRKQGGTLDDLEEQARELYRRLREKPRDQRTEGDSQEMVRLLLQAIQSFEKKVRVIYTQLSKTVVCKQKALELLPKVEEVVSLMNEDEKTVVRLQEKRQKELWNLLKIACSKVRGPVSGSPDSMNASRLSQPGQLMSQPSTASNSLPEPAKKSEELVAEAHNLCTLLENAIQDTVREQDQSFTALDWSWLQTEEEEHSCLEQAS
Kind of test: IKK2 (IKKβ) kinase assay (HTRF). Format: biochemical. The following applies: read-out: IKK2 inhibition% at 0.8 μg/mL (~2 μM). The procedure: as §1

The target in test [7] is T6, Drak2 (Homo sapiens, UniProt O94768).
T6 sequence (O94768 1-372): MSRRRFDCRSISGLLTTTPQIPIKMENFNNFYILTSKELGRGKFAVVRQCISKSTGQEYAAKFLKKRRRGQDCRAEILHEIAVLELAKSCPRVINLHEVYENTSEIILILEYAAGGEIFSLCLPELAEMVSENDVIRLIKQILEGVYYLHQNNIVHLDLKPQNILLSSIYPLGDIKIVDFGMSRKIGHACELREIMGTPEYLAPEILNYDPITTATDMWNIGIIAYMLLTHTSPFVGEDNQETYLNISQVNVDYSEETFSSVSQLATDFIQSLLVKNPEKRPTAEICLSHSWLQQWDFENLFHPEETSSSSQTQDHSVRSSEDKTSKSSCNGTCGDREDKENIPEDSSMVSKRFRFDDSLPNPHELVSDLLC
The experiment in a line: Drak2 kinase assay (ADP-GLO). The following applies: read-out: Drak2 inhibition% at 0.8 μg/mL (~2 μM). Format: biochemical. The procedure: as §1
(In general: ADP-Glo turns the ADP formed in a reaction into a luminescent signal.)

The structures appear in SMILES notation.

Here are results for 3 molecules from PMC6270165, “Synthesis and Biological Evaluation of 3-Benzisoxazolyl-4-indolylmaleimides as Potent, Selective Inhibitors of Glycogen Synthase Kinase-3β” (Molecules, 2013).

The IC50 is the concentration that inhibits the measured activity by half.

T1 sequence (P49841 whole entry): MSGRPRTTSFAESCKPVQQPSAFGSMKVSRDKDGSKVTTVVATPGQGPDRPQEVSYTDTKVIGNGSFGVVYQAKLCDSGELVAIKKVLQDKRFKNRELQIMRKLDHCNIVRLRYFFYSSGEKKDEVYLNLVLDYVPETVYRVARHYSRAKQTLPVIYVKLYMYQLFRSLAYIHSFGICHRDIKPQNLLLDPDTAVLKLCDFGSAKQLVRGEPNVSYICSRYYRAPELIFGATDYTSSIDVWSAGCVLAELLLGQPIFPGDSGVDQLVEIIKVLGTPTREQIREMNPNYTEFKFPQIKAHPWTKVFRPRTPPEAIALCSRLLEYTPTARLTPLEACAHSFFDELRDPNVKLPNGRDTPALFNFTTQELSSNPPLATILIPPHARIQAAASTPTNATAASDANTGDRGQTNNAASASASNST
T3 sequence (O60674 whole entry): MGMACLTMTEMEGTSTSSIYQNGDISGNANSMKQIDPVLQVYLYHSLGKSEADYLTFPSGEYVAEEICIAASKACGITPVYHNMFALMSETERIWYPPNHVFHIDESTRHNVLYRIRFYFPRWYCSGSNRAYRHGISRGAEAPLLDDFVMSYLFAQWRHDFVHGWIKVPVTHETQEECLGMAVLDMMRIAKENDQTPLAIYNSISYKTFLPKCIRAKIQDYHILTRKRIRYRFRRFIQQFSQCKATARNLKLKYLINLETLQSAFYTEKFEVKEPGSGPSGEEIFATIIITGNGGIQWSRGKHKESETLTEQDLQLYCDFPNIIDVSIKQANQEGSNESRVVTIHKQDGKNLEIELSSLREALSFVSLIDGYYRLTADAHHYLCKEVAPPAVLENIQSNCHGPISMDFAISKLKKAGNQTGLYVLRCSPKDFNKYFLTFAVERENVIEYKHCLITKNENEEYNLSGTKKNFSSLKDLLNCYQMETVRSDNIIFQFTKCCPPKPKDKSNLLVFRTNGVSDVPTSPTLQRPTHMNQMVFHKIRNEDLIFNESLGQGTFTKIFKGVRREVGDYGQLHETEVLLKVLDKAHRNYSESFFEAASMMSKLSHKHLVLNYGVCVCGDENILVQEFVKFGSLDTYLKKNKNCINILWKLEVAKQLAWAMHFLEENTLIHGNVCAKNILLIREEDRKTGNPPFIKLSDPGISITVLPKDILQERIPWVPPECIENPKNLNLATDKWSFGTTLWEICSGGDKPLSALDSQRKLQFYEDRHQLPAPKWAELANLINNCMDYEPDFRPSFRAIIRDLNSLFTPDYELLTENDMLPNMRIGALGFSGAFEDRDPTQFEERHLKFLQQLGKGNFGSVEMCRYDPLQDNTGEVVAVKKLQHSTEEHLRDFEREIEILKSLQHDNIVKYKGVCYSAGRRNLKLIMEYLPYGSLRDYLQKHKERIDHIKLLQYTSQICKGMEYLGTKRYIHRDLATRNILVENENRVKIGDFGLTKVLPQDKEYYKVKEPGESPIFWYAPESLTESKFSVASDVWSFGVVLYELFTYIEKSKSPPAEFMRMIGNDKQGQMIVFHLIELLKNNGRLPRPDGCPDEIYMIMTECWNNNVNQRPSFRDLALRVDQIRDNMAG
T4 sequence (P15056 whole entry): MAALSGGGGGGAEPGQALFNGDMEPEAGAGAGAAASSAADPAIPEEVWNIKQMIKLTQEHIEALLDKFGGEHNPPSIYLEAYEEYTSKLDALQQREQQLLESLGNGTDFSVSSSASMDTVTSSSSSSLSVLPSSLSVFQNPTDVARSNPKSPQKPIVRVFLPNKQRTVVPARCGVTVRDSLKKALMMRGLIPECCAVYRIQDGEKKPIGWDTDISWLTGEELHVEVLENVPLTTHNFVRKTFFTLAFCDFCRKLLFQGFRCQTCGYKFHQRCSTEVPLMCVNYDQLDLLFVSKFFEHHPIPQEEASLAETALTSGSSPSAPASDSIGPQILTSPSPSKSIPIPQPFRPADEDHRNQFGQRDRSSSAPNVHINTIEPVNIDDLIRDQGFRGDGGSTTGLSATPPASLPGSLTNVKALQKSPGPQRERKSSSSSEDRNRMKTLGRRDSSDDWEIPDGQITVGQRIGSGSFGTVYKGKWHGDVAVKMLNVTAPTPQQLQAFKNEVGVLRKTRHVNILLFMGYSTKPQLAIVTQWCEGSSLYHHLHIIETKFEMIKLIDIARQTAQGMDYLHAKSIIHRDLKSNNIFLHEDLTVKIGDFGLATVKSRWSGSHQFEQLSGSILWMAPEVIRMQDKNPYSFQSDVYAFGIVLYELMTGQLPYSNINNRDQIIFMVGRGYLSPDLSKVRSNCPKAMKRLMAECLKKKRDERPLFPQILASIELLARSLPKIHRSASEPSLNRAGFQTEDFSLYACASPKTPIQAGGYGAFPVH

Turning to `O=C1NC(=O)C(c2cn(CCCN3CCOCC3)c3cc(F)ccc23)=C1c1noc2ccccc12` [7f, 3-(Benzo[d]isoxazol-3-yl)-4-(6-fluoro-1-(3-morpholinopropyl)-1H-indol-3-yl)-1H-pyrrole-2,5-dione], the IC50 in test [1] amounted to 127 ± 3.2 nM. The “Effect on Aβ25-35-induced Tau phosphorylation at Ser 396” value in test [2] is “obviously reduce”.
Regarding `Cn1cc(C2=C(c3noc4ccccc34)C(=O)NC2=O)c2ccccc21` [7o, 3-(Benzo[d]isoxazol-3-yl)-4-(1-methyl-1H-indol-3-yl)-1H-pyrrole-2,5-dione], the IC50 in test [1] amounted to 22.1 ± 1.5 nM. In addition, in test [1], the “Selectivity for GSK-3β over other tested kinases” value was “high selectivity”. Also, the inhibition at 2 µM in test [3] worked out at 21.2%; in test [4], 9.4%; in test [5] it was 1.1%; in test [6] it was 2.9%; in test [7] it was 13.8%.
Turning to `O=C1NC(=O)C(c2cn(CCCn3ccnc3)c3ccccc23)=C1c1noc2ccccc12` [7j, 3-(1-(3-(1H-Imidazol-1-yl)propyl)-1H-indol-3-yl)-4-(benzo[d]isoxazol-3-yl)-1H-pyrrole-2,5-dione], the IC50 in test [1] was found to be 0.73 ± 0.02 nM. Moreover, the “GSK-3β inhibitory potency, fold more potent than compound 7a” value in test [1] (ratio of IC50 values, versus 7a) was “about 460 fold”. In addition, the “Selectivity for GSK-3β over other tested kinases” value in test [1] is on record as “high selectivity”. Also, the inhibition at 2 µM in test [3] came to 10.9%; in test [4], 4.9%; in test [5], 0.8%; in test [6] it was 3.5%; in test [7], 4.47%.
